Experimental data: publication PMC9296036, “A peptide interfering with the dimerization of oncogenic KITENIN protein and its stability suppresses colorectal tumour progression” (Clinical and Translational Medicine, 2022)
Ends that are not written are not given here.

System: CT-26/iRFP/KITENIN-V5 liver metastases
Experiment: Intrasplenic hepatic metastasis model, CT-26/iRFP/KITENIN-V5 cells in syngeneic mice
Type: in vivo, mouse
Description: For hepatic metastasis analysis, 5‐ to 6‐week‐old Balb/c mice were obtained from OrientBio, Inc. (Seongnam, Korea) and housed in metal cages with free access to water and food. A syngeneic mouse model of colorectal liver metastasis was established by an infusion of tumour cells into the portal system via intrasplenic injection.[27] In brief, CT‐26/KITENIN‐iRFP‐expressing cells (2 × 10^5 cells/mouse) were injected into the spleen. Splenectomy was performed 15 min after an injection of CT‐26 cells. Mice were randomly assigned to two groups: scrambled peptide and KDIP (1, 5 mg/kg). Each peptide was given via intravenous injection six times for 2 weeks after 7 days of inoculation of tumour cells. Metastatic tumour nodules in the liver with a diameter of >1.0 mm were counted using a microscope, and a metastasis score was allocated based on nodule size as follows: 0 (no gross metastasis), 1 (tumour size >1 mm), 2 (tumour size 1 >5 mm) and 3 (tumour size >10 mm). The metastasis score was obtained by multiplying the number and the score of nodules. Fluorescence images of liver nodules expressing iRFP were taken using a Fluorescence‐labelled Organism Bioimaging Instrument (Cellgentek, Korea) and total fluorescence emitted from liver nodules was measured and compared between groups.
Effect of KAI1 C‐terminal interacting tetraspanin (KITENIN) dimerization‐interfering peptide (KDIP) on tumour growth and metastasis in in vivo mouse model of colorectal cancer (CRC). (A) Treatment with KDIP decreases cell invasion of KITENIN‐overexpressing CT‐26 cells. Cell invasion assay was performed in CT‐26 cells transfected with KITENIN and treated with scr‐peptide or KDIP (1 μM) (upper panel). […] For the evaluation of metastasis, total fluorescence emitted from liver nodules expressing iRFP was measured and counted (left panel) or metastatic tumour growth was counted as nodules that migrated to the surface of the liver, and a metastatic score was obtained by multiplying it with size (middle panel). Metastatic score or total fluorescence is represented as mean ± SEM. […]

[1] = KDIP 5 mg/kg versus scrambled peptide, immunoblot densitometry, n = 6

Q: With YARVRRRGPRRWRLVSDEAV [KDIP] as the sequence, how does the “fluorescence of the hepatic nodule (liver metastasis, in words)” value (KDIP 5 mg/kg intravenously for 2 weeks, compared with scramble peptide group) read?
A: Its value is “significantly reduced”.

Q: And the “KITENIN level in metastatic liver nodules (in words)” value [1]?
A: Its value is “significantly decreased”.

Q: What about the “protein level of Myo10 in metastatic liver nodules (in words)” value [1] of the same sequence?
A: The value was “significantly decreased”.
